Assay results reported in US10544089B2, “Innovative preparation and crystallization of iosimenol” (OTSUKA PHARMACEUTICAL CO., LTD., priority 2015, dated 2020).

Experiments:
[1] = Solubility of iosimenol in organic solvents (crystallization attempts); type: physicochemical
Excerpt: The present inventors applied crystallization methods described in literature, but this approach always failed, independently on using crude or purified iosimenol. If any solid was obtained, we usually obtained solid of gummy consistency and we never observed any purity increase.

[2] = Heat stability of iosimenol in crystallization solution (colour change, impurities); type: physicochemical; settings: between 80-110° C.
Excerpt: Although contrast media are relatively stable compounds, usually after a long-term exposure to heat, certain degradation may occur. The most vulnerable are amide groups and covalently bound iodine. In case of iosimenol, the acidic hydrogens on aliphatic carbon of malonyl group may cause cleavage of the bridge at higher temperature and can lead to form monomeric impurities. These all mentioned degradations are more intensive under strong acidic or strong basic conditions. Using our experience in formulation of iosimenol, we used trometamol as a buffer to control pH between 6-7 from the viewpoint of influencing of color. Ideal conditions for iosimenol crystallization are when the crystallization is performed at shortest process time at lowest possible temperature under suitable and controlled pH between 6-7 by buffer from the viewpoint of influencing of color.
Therefore, ideal conditions for crystallization are temperatures between 80-110° C., pH 6-7 and as short as possible time for crystallization.

## NC(=O)c1c(I)c(C(=O)NCC(O)CO)c(I)c(N(CC(O)CO)C(=O)CC(=O)N(CC(O)CO)c2c(I)c(C(N)=O)c(I)c(C(=O)NCC(O)CO)c2I)c1I (stereo not drawn) [iosimenol, N,N′-bis[3-carbamoyl-5-(2,3-dihydroxypropyl-carbamoyl)-2,4,6-triiodophenyl]-N,N′-bis(2,3-dihydroxypropyl)-malonamide]
[1]; alcohols, ethers and alkoxyalcohols
  solubility in solvents: practically insoluble
[1]; aprotic solvents like dimethylformamide
  solubility in aprotic solvents: extremely high solubility
[2]
  degradation on heating (impurities): no new impurities or increased level of known impurities are observed
